Laboratory results taken from PubChem BioAssay AID504598 (NMMLSC, 2011).
The source made the active and inactive calls. How the calls were made is not given here.

What was measured:
[1] = target: Bcl-2-related protein A1 (Homo sapiens) (UniProt Q16548); assay: Bcl-2 family partner binding disruption – biochemical, powder compounds, wildtype and mutant Bfl1, panel, dose response (AID 504598); conditions: Bfl1/BclB peptide binding displacement assay; for percent span: stronger effect = higher value
Sequence of Bcl-2-related protein A1 (Homo sapiens) (Q16548 whole entry, looked up): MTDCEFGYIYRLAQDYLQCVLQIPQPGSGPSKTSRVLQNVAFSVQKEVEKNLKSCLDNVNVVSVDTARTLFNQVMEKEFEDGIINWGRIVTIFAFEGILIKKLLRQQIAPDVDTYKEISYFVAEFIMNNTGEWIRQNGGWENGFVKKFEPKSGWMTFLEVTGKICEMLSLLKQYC

[2] = target: Bcl-2-like protein 10 (Homo sapiens) (UniProt Q9HD36); assay: as above; conditions: Bfl1/BclB peptide binding displacement assay, BclB wildtype; for percent span: stronger effect = higher value
Sequence of Bcl-2-like protein 10 (Homo sapiens) (Q9HD36 whole entry, looked up): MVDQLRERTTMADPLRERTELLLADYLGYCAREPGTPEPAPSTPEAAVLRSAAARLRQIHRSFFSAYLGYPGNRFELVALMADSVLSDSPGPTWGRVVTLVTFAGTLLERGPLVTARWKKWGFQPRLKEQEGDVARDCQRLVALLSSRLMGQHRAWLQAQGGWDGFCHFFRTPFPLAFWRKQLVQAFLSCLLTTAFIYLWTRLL

[3] = Bfl1 wildtype, deteriorated Bfl1 protein

Structure (SMILES) | percent span ([1]; Bfl1 mutant) | EC50 [1, 3] [nM] | percent span ([1]; Bfl1 wildtype) | percent span [2] | EC50 [2] | EC50 ([1]; Bfl1 wildtype) | EC50 ([1]; Bfl1 mutant)
CCN1C(=O)/C(=C\C=C2/C=CC=CN2CC)SC1=S | inactive | 483 | inactive | inactive | – | – | –
CN1CCN(C2=C(Cl)C(=O)N(c3ccc(Cl)c(Cl)c3)C2=O)CC1 | inactive | – | inactive | inactive | – | – | –
Cc1ccc(C=NNC(=O)CSc2nnc(-c3ccc(Cl)cc3)n2-c2ccccc2)o1 | inactive | – | inactive | – | 2300 nM | – | –
Cc1cc(-c2cc(-c3ccc(Cl)cc3)nc(N)c2C#N)co1 | inactive | 1060 | – | inactive | – | > 104000 nM (inactive) | –
Oc1ccc(NCc2ccccc2OCc2ccccc2)cc1 | inactive | 619 | inactive | inactive | – | – | –
Cc1cc(C)nc(/N=C(/N)Nc2cccc(N)c2)n1 | inactive | – | inactive | inactive | – | – | –
CCOC(=O)CCS(=O)(=O)c1nc(-c2ccccc2)cc(C(F)(F)F)n1 | inactive | – | inactive | inactive | – | – | –
CC(C)c1nnc(NC(=O)CCS(=O)(=O)c2nc(-c3cccs3)cc(C(F)(F)F)n2)s1 | inactive | – | inactive | inactive | – | – | –
Cc1ccc(-c2cc(-c3ccc(F)cc3)c(C#N)c(N)n2)o1 | inactive | 1530 | inactive | inactive | – | – | –
CN1CCN(C2=C(Cl)C(=O)N(c3cccc(Cl)c3)C2=O)CC1 | inactive | – | inactive | inactive | – | – | –
Cc1ccc(-c2cc(-c3ccc(C)o3)nc(N)c2C#N)cc1 | inactive | 1260 | inactive | inactive | – | – | –
O=C1C(Cl)=C(N2CCN(c3ccccc3[N+](=O)[O-])CC2)C(=O)c2ccccc21 | inactive | 420 | inactive | inactive | – | – | –
CC(=O)c1ccc(NC(=O)c2ccc3nc(-c4ccco4)c(-c4ccco4)nc3c2)cc1 | inactive | 2120 | inactive | – | inactive | – | –
O=C(Nc1ccc2nc(-c3ccco3)c(-c3ccco3)nc2c1)N1CCCCCC1 | inactive | 344 | inactive | – | 13600 nM | – | –
Cc1ccc(C)n1-c1ccc(Br)cc1C(=O)O | inactive | – | inactive | inactive | – | – | –
COc1cccc(-c2cc(C(F)(F)F)nc(S(C)(=O)=O)n2)c1 | inactive | 259 | inactive | inactive | – | – | –
CNC(CC(=O)c1ccc([N+](=O)[O-])cc1)C(Cl)(Cl)Cl (stereo unspecified) | inactive | 31.4 | inactive | inactive | – | – | –
CCOC(=O)CS(=O)(=O)c1nc(-c2ccccc2)cc(C(F)(F)F)n1 | inactive | 365 | inactive | inactive | – | – | –
O=C1NC(=O)C2(Cc3c(nc4ccccn4c3=O)N3CCCCCC32)C(=O)N1Cc1ccccc1 (stereo unspecified) | inactive | – | inactive | inactive | – | – | –
Cc1cc(N)ccc1N1CCCC1 | inactive | 1860 | inactive | – | > 141000 nM (inactive) | – | –
CNC1CCC(Br)CC(C(=O)/C=C/c2cccc(OC)c2OC)C1=O (stereo unspecified) | – | 18400 | – | inactive | – | 9210 nM | inactive
